PMC8691691 (ACS Chemical Neuroscience, 2021)
Numbering of substitutions follows the chain as printed. Read-outs that look alike come from different tables or passages of the source.

Key:
Assay in all cases: [3H]glycine transport by GlyT2 mutant in COS7 cells
Assay type in all cases: cell-based
GlyT2 I292C mutant = molecular target: T1, GlyT2 I292C mutant (Rattus norvegicus, UniProt P58295, I292C)
T1 construct: expressed in transfected cells; host or cells: COS7
T1 sequence (P58295 1-799 I292C): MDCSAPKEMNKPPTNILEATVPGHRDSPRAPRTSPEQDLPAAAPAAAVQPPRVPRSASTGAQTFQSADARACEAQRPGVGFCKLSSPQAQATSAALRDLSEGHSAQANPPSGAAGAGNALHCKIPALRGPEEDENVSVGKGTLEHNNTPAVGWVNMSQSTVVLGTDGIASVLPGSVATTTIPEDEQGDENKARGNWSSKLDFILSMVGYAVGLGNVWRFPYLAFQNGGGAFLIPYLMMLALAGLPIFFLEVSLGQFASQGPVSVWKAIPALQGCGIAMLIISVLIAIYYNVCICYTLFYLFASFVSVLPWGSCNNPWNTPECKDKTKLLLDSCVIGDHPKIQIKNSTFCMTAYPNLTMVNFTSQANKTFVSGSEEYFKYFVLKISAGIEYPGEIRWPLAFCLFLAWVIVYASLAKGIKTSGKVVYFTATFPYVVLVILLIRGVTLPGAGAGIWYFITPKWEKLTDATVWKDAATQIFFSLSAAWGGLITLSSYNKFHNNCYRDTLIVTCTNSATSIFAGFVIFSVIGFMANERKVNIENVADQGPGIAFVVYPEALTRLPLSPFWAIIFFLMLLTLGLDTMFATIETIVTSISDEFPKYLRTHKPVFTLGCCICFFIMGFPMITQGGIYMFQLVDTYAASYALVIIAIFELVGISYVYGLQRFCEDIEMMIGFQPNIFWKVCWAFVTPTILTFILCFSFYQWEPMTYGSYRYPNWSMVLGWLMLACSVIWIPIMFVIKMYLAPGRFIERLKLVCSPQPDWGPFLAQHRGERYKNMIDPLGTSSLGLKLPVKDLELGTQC
Source text: (§1) To validate the predicted interactions between the inhibitors and GlyT2, we used systematic site-directed mutagenesis to construct substitution mutants of the potential residues involved in ligand binding. […] The GlyT2 residues predicted to interact with the inhibitors through its side chain were replaced by amino acids expected to force the loss of the interaction. In the cases where the interaction occurred through the backbone, the inserted amino acid sought to alter the disposition of the substituted residue to lose the coordination.
(§2) Substitution mutants were generated with the QuikChange II Site-Directed Mutagenesis kit (Agilent Technologies, Santa Clara, CA, USA), using rGlyT2 or rGlyT1 subcloned in pCDNA3.[47] The complete coding region of all of the constructs was sequenced to verify that only the desired mutation had been introduced. […] COS7 cells were grown and transfected using Turbofect Transfection Reagent (Thermo Fisher Scientific, Waltham, MA, USA), following the manufacturer’s protocol (2 μL reagent/μg of DNA). Cells were incubated for 48 h at 37 °C until used.
(§3) At the end of the desired time (usually 10 min), reactions were washed and terminated by aspiration. […] A nonlinear curve fitting method was used to obtain IC50 values using Graphpad Prism software, version 6.0, Graphpad, San Diego, CA, USA.

GlyT2 A639C mutant = molecular target: T2, GlyT2 A639C mutant (Rattus norvegicus, UniProt P58295, A639C)
T2 construct: expressed in transfected cells; host or cells: COS7
T2 sequence (P58295 1-799 A639C): T1 sequence (P58295 1-799 I292C) with C292I, A639C
Source text: as §1, §2, §3

GlyT2 T580C mutant = molecular target: T3, GlyT2 T580C mutant (Rattus norvegicus, UniProt P58295, T580C)
T3 construct: expressed in transfected cells; host or cells: COS7
T3 sequence (P58295 1-799 T580C): T1 sequence (P58295 1-799 I292C) with C292I, T580C
Source text: as §1, §2, §3

Row | IC50 (GlyT2 I292C mutant; read-out: IC50 (Table S1)) [nM] | IC50 (GlyT2 A639C mutant; read-out: IC50 (Table S1)) [nM] | IC50 (GlyT2 T580C mutant; read-out: IC50 (Table S1)) [nM] | SMILES | IC50 (GlyT2 I292C mutant) [nM] | IC50 (GlyT2 A639C mutant) [nM] | IC50 (GlyT2 T580C mutant) [nM]
1 | 36 ± 4 | 22 ± 4 | 84 ± 9 | N[C@@H](COC(c1cccc(F)c1)c1ccccc1OCc1ccccc1)C(=O)O (stereo partly drawn) [ALX1393] |  |  | 
2 |  |  |  | COc1cc(C(=O)NCC2(N(C)C)CCCC2)cc(OC)c1OCc1ccccc1 [ORG25543, N-[[1-(dimethylamino)cyclopentyl]methyl]-3,5-dimethoxy-4-(phenylmethoxy)benzamide] | 24 ± 3 | 51 ± 2 | 96 ± 10
